Reference: US9206219B2, “17-hydroxy-17-pentafluorethyl-estra-4,9(10)-dien-11-aryl derivatives, methods for the production thereof and the use thereof for treating diseases” (Bayer Intellectual Property GmbH, priority 2009, dated 2015)

Assays:
[1] = biological target: T1, human progesterone receptor A (Homo sapiens, UniProt P06401); test: Progesterone receptor-antagonistic action in stably transfected SK-N-MC cells, MMTV-LUC reporter (PR-A); type: cell-based; conditions: antagonistic potency vs 0.1 nmol/l promegestone, 24 hours
T1 construct: expressed in transfected cells; host or cells: SK-N-MC human neuroblastoma cells, stably transfected with pRChPR-A-neo and pMMTV-LUC
T1 sequence (P06401 1-769 isoform P06401-2): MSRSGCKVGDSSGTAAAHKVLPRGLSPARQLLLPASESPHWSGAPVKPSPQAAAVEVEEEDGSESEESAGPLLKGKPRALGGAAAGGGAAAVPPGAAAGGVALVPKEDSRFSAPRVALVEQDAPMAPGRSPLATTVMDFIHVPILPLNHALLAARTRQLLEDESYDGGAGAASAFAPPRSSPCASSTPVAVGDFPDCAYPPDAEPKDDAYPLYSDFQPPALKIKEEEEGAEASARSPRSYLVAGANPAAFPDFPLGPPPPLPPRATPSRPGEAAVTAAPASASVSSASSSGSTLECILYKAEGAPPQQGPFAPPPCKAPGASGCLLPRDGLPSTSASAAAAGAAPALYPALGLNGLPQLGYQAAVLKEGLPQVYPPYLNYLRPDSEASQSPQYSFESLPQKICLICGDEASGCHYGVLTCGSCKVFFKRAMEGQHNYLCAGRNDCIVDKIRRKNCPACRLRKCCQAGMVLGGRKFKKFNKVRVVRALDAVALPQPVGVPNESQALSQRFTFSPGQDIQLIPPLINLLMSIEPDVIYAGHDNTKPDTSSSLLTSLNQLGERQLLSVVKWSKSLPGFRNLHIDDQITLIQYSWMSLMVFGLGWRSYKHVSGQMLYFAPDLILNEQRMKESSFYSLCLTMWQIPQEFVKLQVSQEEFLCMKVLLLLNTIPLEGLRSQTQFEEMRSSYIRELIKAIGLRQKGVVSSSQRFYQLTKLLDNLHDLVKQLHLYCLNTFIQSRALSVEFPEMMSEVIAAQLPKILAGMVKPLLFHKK
Method in brief: (§1)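 Stably transfected SK-N-MC cells express human PR-B or PR-A plus MMTV-LUC. For antagonism they were co-treated with 0.1 nmol/l promegestone and compound (0.01 nmol/l upward) for 24 hours. Luciferase in lysates was read as RLU and reported as % efficacy and IC50.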

[2] = biological target: T2, human progesterone receptor B (Homo sapiens, UniProt P06401); test: Progesterone receptor-antagonistic action in stably transfected SK-N-MC cells, MMTV-LUC reporter (PR-B); type: cell-based; conditions: antagonistic potency vs 0.1 nmol/l promegestone, 24 hours
T2 construct: expressed in transfected cells; host or cells: SK-N-MC human neuroblastoma cells, stably transfected with pRChPR-B-neo and pMMTV-LUC
T2 sequence (P06401 1-933): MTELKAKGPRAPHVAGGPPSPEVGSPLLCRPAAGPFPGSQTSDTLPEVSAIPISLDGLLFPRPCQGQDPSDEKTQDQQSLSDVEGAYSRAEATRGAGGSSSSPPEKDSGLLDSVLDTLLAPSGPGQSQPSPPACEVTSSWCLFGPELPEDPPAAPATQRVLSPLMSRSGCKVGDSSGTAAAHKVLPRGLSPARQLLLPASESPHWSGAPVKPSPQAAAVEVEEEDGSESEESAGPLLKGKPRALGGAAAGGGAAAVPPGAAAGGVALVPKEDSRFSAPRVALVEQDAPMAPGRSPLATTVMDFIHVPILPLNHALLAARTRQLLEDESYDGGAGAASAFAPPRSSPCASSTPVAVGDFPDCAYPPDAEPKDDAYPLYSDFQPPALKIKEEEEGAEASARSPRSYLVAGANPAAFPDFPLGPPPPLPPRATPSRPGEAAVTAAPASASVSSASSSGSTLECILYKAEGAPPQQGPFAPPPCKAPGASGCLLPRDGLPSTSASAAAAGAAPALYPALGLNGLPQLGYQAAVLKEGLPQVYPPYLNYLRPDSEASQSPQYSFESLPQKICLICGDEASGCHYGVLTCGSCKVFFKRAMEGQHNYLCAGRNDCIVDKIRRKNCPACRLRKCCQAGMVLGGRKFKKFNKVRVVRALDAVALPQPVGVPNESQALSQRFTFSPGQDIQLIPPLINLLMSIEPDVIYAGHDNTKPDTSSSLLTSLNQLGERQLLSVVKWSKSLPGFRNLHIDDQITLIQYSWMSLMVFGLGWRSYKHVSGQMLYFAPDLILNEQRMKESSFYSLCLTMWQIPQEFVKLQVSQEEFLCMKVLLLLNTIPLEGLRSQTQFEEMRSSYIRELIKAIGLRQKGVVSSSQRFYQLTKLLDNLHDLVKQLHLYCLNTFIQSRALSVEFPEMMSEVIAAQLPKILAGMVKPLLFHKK
Method in brief: as §1

[3] = Metabolic stability in rat liver microsomes; type: in vitro ADME; conditions: calculated from liver microsome clearance
Protocol: (§2) Determination of Metabolic Stability in Human and Rat Liver Microsomes
(§3) The incubations were conducted with 2.4 ml of HLM solution (protein content 0.5 mg/ml), 30 μl of the test compound (final concentration 1 μM) and 0.6 ml of the cofactor mixture (=NADPH-generating system composed of 3 IU glucose-6-phosphate dehydrogenase, 14.6 mg glucose-6-phosphate, 1.2 mg NADP) at 37° C. in 100 mM phosphate buffer at pH 7.4. Samples were taken at 6 time points (2-60 min) and precipitated with an equal volume of methanol, and the recovery of the test substances used in the supernatant was determined by LC-MS/MS analysis. The half-life of substance degradation determined therefrom was used to calculate what is called the intrinsic clearance of the substance in the liver microsome preparation. […] In addition, under the assumptions that (i) absorption of the test substance is 100%, and (ii) the first pass is completely reflected by liver microsome metabolism, a maximum oral bioavailability (Fmax) was calculated.

[4] = Metabolic stability in human liver microsomes; type: in vitro ADME; conditions: calculated from liver microsome clearance
Protocol: as §2
Isolated human liver microsomes (HLM) were used to assess the metabolic stability of compounds of general formula I.
as §3

Row | Compound | IC50 [1] | IC50 [2] | Predicted Fmax (maximum oral bioavailability) [3] | Predicted Fmax (maximum oral bioavailability) [4]
1 | CC1(C)OCC(C)(c2ccc([C@H]3C[C@@]4(C)[C@@H](CC[C@@]4(O)C(F)(F)C(F)(F)F)[C@@H]4CCC5=CC(=O)CCC5=C43)cc2)CO1 [Example 15B, (8S,11R,13S,14S,17S)-17-hydroxy-13-methyl-17-pentafluoroethyl-11-[4-(2,2,5-trimethyl-[1,3]dioxan-5-yl)phenyl]-1,2,6,7,8,11,12,13,14,15,16,17-dodecahydrocyclopenta[a]phenanthren-3-one] | 0.01 nM | 0.01 nM | 4.7% | 5.0%
2 | C[C@]12C[C@H](c3ccc(-c4ccc(-c5nnn[nH]5)cc4)cc3)C3=C4CCC(=O)C=C4CC[C@H]3[C@@H]1CC[C@@]2(O)C(F)(F)C(F)(F)F [Example 29, (8S,11R,13S,14S,17S)-17-hydroxy-13-methyl-17-pentafluoroethyl-11-[4′-(1H-tetrazol-5-yl)biphenyl-4-yl]-1,2,6,7,8,11,12,13,14,15,16,17-dodecahydrocyclopenta[a]phenanthren-3-one] | 0.3 nM | 0.9 nM | 93% | 69%
3 | CC(CO)(CO)c1ccc([C@H]2C[C@@]3(C)[C@@H](CC[C@@]3(O)C(F)(F)C(F)(F)F)[C@@H]3CCC4=CC(=O)CCC4=C32)cc1 [Example 15A, (8S,11R,13S,14S,17S)-17-hydroxy-11-[4-(2-hydroxy-1-hydroxymethyl-1-methylethyl)phenyl]-13-methyl-17-pentafluoroethyl-1,2,6,7,8,11,12,13,14,15,16,17-dodecahydrocyclopenta[a]phenanthren-3-one] | 0.09 nM | 0.1 nM | 59% | 8.5%
